The text below walks through data of patent US6440978B2, “Therapeutic agent for dermatitis” (Nippon Zoki Pharmaceutical Co., Ltd., priority 2000, dated 2002).

Each structure is given as a SMILES string.

The test system of data set [1] is antigen-induced flare-up reaction in a mouse. Briefly: Suppressive action against antigen-induced flare-up reaction in a mouse. Conditions: 3% ointment. Format: in vivo, BALB/c female mice. Here is the method: (§1) Seven week old BALB/c female (SPF) mice of were selected as subjects. According to a method of Tanaka, et al. (Allergy, 46, pages 42-48(1997)), egg white albumin (final concentration: 2 μg/mL) and aluminum hydroxide gel (final concentration: 10 mg/mL) were suspended in physiological saline and 0.5 mL of the suspension was administered to effect intraperitoneal sensitization on the first day of the test. On the 14th day of the test, an additional sensitization was carried out under the same conditions. Further, on the 28th day of the test, 25 μL of egg albumin (a 20 μg/mL solution in physiological saline) was intradermally administered to the right ear of a mouse to induce a swelling reaction.
This swelling reaction reached its peak at 4 hours after the challenge by the antigen. Even after 24 to 48 hours, a significant swelling reaction was noted as compared with the control in which antigen was merely challenged (not sensitized). […] On the contrary, the swelling from 24 to 48 hours after the challenge is thought to be the so-called delayed-type swelling reaction accompanied by infiltration of eosinophils, neutrophils and lymphocytes. In addition, a flare-up reaction having a peak at 24 hours after the challenge appeared on the ear of the antigen-induced site. Like swelling, flare-up is an important symptom of inflammation. Although the mechanism of the flare-up reaction is ambiguous, it may be a flare-up reaction of a delayed type in view of the time course of its expression. As such, this model animal in which the inflammation of both immediate and delayed types are induced is appropriate as a model animal for atopic dermatitis. In the following experiment, the effectiveness of the therapeutic agent for dermatitis according to the present invention was tested using the said model animal.
Each of a vehicle (control) and an agent for the test (the therapeutic agent for dermatitis according to the present invention or a positive control) was applied to the antigen-induced site (right auricle) of a mouse to induce a swelling reaction in accordance with Example 2 at 2 hours before and 4 hours after the challenge. The right ear was observed by naked eye and the degree of flare-up was scored according to the following standard:
1: in such a degree that a flare-up was confirmed, the color is clear red or pale red and the size was small
2: between score 3 and score 1
3: color of the flare-up was clearly red and the size of the flare-up was big

Data set [2] concerns eosinophil infiltration into the antigen-induced ear of a mouse. In words: Suppressive action against eosinophil infiltration into the antigen-induced ear of a mouse (eosinophil peroxidase activity). In kind it is in vivo, BALB/c female mice. Conditions: 3% ointment; ear tissue 24 hours after challenge; compared with positive control. As for the experimental part:
as §1
The degree of eosinophil infiltration into the ear of a mouse was determined by measuring eosinophil peroxidase activity in a skin tissue homogenate and using the measurement as an index. […] This homogenate was centrifuged at 20,000 rpm for 20 minutes (using KR-20000T, Kubota) and the peroxidase activity in the supernatant fluid was measured using o-phenylenediamine dihydrochloride (Sigma) as a substrate. By measuring the absorbance of radiation having a wavelength of 492 nm, the resulting reaction curve was substantially linear relative to the dosage of the test drug and the degree of eosinophil infiltration was compared by defining the eosinophil infiltration of the control as 100%.

Data set [3] concerns guinea pig eosinophils in the abdominal cavity. In words: Suppression of LTB4-induced chemotaxis of guinea pig eosinophils (modified Boyden chamber). Format: cell-based, Hartley male guinea pigs. Conditions: Cavia porcellus, Eosinophil; chemotaxis induced by 10^-7 M LTB4, 37° C., 2 hours; 5 trials. As for the experimental part:
The suppressive effect of the compounds of the present invention on the leukotriene B4 or LTB4 induced chemotaxis of guinea pig eosinophils in the abdominal cavity were investigated using a modified Boyden chamber method. The guinea pig eosinophils in the abdominal cavity were prepared using Hartley male guinea pigs according to the conventional method. The chemotaxis of the eosinophils was induced by 10^−7 M of leukotriene B4 or LTB4 in 37° C. for 2 hours in the presence or absence of the test drug (the therapeutic agent for dermatitis of the present invention). After the chemotaxis cells were fixed and stained using the Giemsa stain, the number of chemotaxis cells was counted in visual fields of a microscope (×400). The experiments were repeated several times and the suppression rate of the test drug was calculated by the following formula:
Suppression Rate (%)=100×[(the number of chemotaxis eosinophils in control group)—(the number of chemotaxis eosinophils in the test drug group)]/[(the number of chemotaxis eosinophils in control group)—(the number of spontaneous chemotaxis eosinophils)]
The 50% inhibitory concentration (IC50) was calculated from the regression line obtained by the least square method based on the calculated suppression rates.

For data set [4], the target named is T1, phosphodiesterase type II (PDE II) (Homo sapiens, UniProt O00408).
T1 construct: phosphodiesterase type II (PDE II) partially purified from human platelets; from tissue; host or cells: human platelets
In words: Inhibitory action against phosphodiesterase type II. Format: biochemical. Conditions: 100 μM; PDE II from human platelets. The source says: (§2) The inhibitory action of the compounds of the present invention against activities of various phosphodiesterase (PDE) isozymes were investigated using the conventional method. Each of the inhibitory action of the compounds of the present invention on the activities of phosphodiesterase type II (PDE II) partially purified from human platelets, phosphodiesterase type III […] partially purified from human platelets, phosphodiesterase type IV (PDE IV) partially purified from human U937 promonocytic leukemia cells and phosphodiesterase type V (PDE V) partially purified from human platelets were measured.

Data set [5] has as its target T2, phosphodiesterase type III (Homo sapiens, UniProt Q14432).
T2 construct: phosphodiesterase type III […] partially purified from human platelets; from tissue; host or cells: human platelets
In words: Inhibitory action against phosphodiesterase type III. Conditions: 100 μM; PDE III from human platelets. Format: biochemical.
Text: as §2

Data set [6] concerns phosphodiesterase type IV (PDE IV). In words: Inhibitory action against phosphodiesterase type IV. Format: biochemical, human.
Text: as §2

Data set [7] concerns the target T3, phosphodiesterase type V (PDE V) (Homo sapiens, UniProt O76074).
T3 construct: phosphodiesterase type V (PDE V) partially purified from human platelets; from tissue; host or cells: human platelets
Briefly: Inhibitory action against phosphodiesterase type V. Format: biochemical. Conditions: 100 μM; PDE V from human platelets.
Text: as §2

T2 sequence (Q14432 whole entry): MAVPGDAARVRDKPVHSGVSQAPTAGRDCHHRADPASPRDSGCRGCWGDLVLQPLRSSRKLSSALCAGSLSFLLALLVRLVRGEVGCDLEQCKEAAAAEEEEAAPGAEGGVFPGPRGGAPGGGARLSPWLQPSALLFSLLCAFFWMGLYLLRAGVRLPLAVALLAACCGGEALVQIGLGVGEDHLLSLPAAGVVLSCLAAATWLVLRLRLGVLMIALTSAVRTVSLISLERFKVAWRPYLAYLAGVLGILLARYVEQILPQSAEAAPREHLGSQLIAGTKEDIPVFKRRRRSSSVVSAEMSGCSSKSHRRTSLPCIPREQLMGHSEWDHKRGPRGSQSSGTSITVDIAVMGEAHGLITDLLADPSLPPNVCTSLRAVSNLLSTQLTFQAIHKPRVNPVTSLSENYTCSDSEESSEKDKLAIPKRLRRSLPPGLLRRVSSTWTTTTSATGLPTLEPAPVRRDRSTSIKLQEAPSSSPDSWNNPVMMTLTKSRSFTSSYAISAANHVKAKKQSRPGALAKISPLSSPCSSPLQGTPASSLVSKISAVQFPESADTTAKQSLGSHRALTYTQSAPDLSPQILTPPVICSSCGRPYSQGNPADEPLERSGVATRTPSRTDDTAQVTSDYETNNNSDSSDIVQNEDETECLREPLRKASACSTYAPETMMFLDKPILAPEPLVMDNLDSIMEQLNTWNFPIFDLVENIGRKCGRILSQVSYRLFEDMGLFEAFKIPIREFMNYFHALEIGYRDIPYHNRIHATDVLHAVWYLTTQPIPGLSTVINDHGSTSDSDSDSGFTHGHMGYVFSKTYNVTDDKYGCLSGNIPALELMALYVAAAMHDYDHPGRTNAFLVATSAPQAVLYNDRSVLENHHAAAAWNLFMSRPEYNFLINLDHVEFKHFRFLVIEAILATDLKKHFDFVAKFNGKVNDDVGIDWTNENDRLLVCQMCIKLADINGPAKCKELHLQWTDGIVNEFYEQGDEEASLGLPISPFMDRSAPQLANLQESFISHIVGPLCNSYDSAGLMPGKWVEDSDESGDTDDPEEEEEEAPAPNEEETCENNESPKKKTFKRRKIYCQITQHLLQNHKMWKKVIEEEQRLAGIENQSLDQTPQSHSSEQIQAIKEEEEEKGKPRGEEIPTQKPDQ
T1 sequence (O00408 whole entry): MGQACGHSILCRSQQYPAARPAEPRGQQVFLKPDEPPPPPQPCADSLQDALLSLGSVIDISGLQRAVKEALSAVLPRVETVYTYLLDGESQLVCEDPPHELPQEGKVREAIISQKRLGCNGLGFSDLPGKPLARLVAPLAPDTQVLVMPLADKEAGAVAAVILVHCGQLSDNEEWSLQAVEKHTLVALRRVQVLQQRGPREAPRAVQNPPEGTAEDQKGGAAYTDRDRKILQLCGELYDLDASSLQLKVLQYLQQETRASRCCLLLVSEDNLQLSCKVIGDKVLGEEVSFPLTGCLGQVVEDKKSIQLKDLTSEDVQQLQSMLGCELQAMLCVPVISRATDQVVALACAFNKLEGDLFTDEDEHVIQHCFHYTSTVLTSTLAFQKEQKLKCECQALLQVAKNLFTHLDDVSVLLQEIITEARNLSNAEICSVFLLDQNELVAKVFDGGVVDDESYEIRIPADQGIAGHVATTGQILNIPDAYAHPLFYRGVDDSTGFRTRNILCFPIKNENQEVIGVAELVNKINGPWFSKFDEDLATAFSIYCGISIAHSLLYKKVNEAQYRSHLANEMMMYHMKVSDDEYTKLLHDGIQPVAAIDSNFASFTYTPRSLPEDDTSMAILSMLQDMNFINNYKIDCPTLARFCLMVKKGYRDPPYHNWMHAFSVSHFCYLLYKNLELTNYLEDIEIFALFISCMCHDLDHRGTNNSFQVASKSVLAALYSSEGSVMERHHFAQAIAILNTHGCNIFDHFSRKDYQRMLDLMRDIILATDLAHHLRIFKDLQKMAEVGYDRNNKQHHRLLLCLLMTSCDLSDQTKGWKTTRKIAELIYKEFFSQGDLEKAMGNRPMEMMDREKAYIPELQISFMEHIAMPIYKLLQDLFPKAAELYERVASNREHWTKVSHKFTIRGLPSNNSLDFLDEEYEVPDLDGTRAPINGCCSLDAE

As for `Nc1ccc2c(=O)n(Cc3ccccc3)c(=O)n(-c3ccccc3)c2n1` [Compound 1, 7-amino-3-benzyl-1,2,3,4-tetrahydro-1-phenylpyrido[2,3-d]pyrimidin-2,4-dione], the melting point lay within 261 to 262 °C. For the same molecule, the “Suppression Rate of flare-up score at 4 hr after Challenge” value in data set [1] (4 hr after challenge) is “(0.0%)”. For the same molecule, the “Flare-up Score at 4 hr after Challenge” value in data set [1] (4 hr after challenge, score 0-3) is 0.8 ± 0. Moreover, the “Suppression Rate of flare-up score at 24 hr after Challenge” value in data set [1] (24 hr after challenge) was “(32.0%)”. For the same molecule, in data set [1] (24 hr after challenge, score 0-3), the “Flare-up Score at 24 hr after Challenge” value was found to be 1.7 ± 0.2. The “eosinophil infiltration suppressing action” value in data set [2] is “same degree as that of the steroid preparation of the positive control”. The IC50 in data set [3] stood at 1900 ± 400 nM. Besides, in data set [4], the “suppression activity against PDE II” value is reported as 6%. Also, the “suppression activity against PDE III” value in data set [5] is given as 22%. Moreover, the “dose dependence of PDE IV inhibitory effect” value in data set [6] is “dose dependent”. Also, the “suppression activity against PDE IV” value in data set [6] (100 μM, PDE IV from human U937 promonocytic leukemia cells) is 82%. Also, the PDE isozyme selectivity entry in data set [6] (PDE IV versus PDE II, III and V at 100 μM) is “PDE IV selective inhibitory effect”. The “suppression activity against PDE V” value in data set [7] was 15%.
